Assays:
Steryl-sulfatase [1] = target: T1, Steryl-sulfatase (Homo sapiens, UniProt P08842); experiment: Reversible inhibition of recombinant human estrone sulfatase using 4-methylumbelliferyl sulfate as substrate by Hanes plot analysis
T1 sequence (P08842 whole entry): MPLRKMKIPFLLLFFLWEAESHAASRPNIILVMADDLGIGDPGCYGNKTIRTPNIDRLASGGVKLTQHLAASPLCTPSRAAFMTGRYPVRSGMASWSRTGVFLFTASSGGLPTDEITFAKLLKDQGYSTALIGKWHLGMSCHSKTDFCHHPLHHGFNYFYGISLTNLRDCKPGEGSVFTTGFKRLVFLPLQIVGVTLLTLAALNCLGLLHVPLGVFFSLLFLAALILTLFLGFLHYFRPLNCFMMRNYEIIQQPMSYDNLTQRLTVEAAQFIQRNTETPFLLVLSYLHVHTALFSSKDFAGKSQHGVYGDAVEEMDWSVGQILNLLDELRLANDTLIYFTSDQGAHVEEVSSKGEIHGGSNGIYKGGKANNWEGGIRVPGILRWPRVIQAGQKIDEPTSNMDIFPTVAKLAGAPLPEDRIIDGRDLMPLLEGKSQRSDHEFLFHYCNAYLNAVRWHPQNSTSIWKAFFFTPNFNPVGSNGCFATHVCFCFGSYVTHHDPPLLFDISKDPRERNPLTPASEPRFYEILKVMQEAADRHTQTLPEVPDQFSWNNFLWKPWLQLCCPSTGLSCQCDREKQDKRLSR

Steryl-sulfatase [2] = target: T1, Steryl-sulfatase; experiment: Inhibition of recombinant human estrone sulfatase expressed in CHO cells using 4-methylumbelliferyl sulfate as substrate by Hanes plot analysis; assay type: cell-based

Ki (Steryl-sulfatase [1]) [nM]	Ki (Steryl-sulfatase [2]) [nM]	SMILES
500		O=C(O)c1ccc2sc(C34CC5CC(CC(C5)C3)C4)cc(=O)c2c1
	890	O=C(NN1[C@@H]2CC[C@H]1CC(C(=O)OCc1ccccc1)C2)NS(=O)(=O)c1ccc(Cl)cc1 (some centres not stated)

— ChEMBL document CHEMBL3804784, “Sulfatase inhibitors for recidivist breast cancer treatment: A chemical review” (Eur J Med Chem, 2016)
